# Results: the supplement of paper PMC5579334
# Experiments:
# S1507-2 = experiment: relative IC50 (inflection point of fitted dose-response curve, CellTiter-Glo viability, 72 h; top asymptote may be below 50% inhibition); higher = less potent
# Method in brief: (§1)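 After seeding 750–1000 cells per well of MPNST cell lines or primary human Schwann cells into 384-well plates preprinted with each compound at five concentrations in 10-fold steps, plates were kept 72 h at 37 °C, 5% CO2. Viability was read as CellTiter-Glo ATP luminescence relative to vehicle and positive-control wells, with duplicates averaged where present. The data were fitted with four-parameter logistic models. Drug sensitivity score and relative IC50, censored at the top concentration, derive from the fits, and percent inhibition refers to the top concentration.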
# HSC2 [1] = experiment: as above
# Method in brief: as §1
# HS-Sch-2 = experiment: as above
# Method in brief: as §1
# YST-1 = experiment: as above
# Method in brief: as §1
# S462 = experiment: as above
# Method in brief: as §1
# HS-PSS [2] = experiment: as above
# Method in brief: as §1
# ST8814 [3] = experiment: as above
# Method in brief: as §1
# STS26T [4] = experiment: as above
# Method in brief: as §1
# HSC1 [5] = experiment: as above
# Method in brief: as §1
# HS-PSS [6] = experiment: relative IC50 (inflection point of fitted dose-response curve, CellTox-Green cytotoxicity, 72 h; top asymptote may be below 50%); higher = less potent
# Method in brief: (§2)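 For 72 h at 37 °C, MPNST cell lines and primary human Schwann cells were exposed in 384-well plates to five 10-fold compound dilutions. CellTox-Green, added before seeding at a final 1:1000 dilution, gave fluorescence from DNA released by disrupted cells. Signals were scaled to vehicle and positive-control wells, cultures failing plate quality control were left out, and four-parameter logistic fits were applied. Relative IC50 and drug sensitivity score were derived from the fits, with IC50 censored at the top concentration.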
# ST8814 [7] = experiment: as above
# Method in brief: as §2
# STS26T [8] = experiment: as above
# Method in brief: as §2
# HSC1 [9] = experiment: as above
# Method in brief: as §2
# HSC2 [10] = experiment: as above
# Method in brief: as §2
Structure (SMILES),relative IC50 (S1507-2),relative IC50 (HSC2 [1]),relative IC50 (HS-Sch-2),relative IC50 (YST-1),relative IC50 (S462),relative IC50 (HS-PSS [2]),relative IC50 (ST8814 [3]),relative IC50 (STS26T [4]),relative IC50 (HSC1 [5]),relative IC50 (HS-PSS [6]),relative IC50 (ST8814 [7]),relative IC50 (STS26T [8]),relative IC50 (HSC1 [9]),relative IC50 (HSC2 [10])
CCn1c(-c2nonc2N)nc2cnc(Oc3cccc(NC(=O)c4ccc(OCCN5CCOCC5)cc4)c3)cc21,1480 nM,51.4 nM,988 nM,618 nM,1490 nM,1610 nM,1930 nM,775 nM,64 nM,> 10000 nM,> 10000 nM,322 nM,2520 nM,
CN(c1ccccc1CNc1nc(Nc2ccc3c(c2)CC(=O)N3)ncc1C(F)(F)F)S(C)(=O)=O,1250 nM,326 nM,2440 nM,1240 nM,1010 nM,2360 nM,1370 nM,1420 nM,209 nM,,,849 nM,,
O=C(O)c1ccc(-c2c[nH]c3ncc(-c4ccccc4)cc23)cc1C1CCCC1,> 10000 nM,,2980 nM,> 10000 nM,> 10000 nM,,> 10000 nM,> 10000 nM,> 10000 nM,> 10000 nM,> 10000 nM,> 10000 nM,> 10000 nM,> 10000 nM
CC/C(=C(\c1ccc(O)cc1)c1ccc(OCCN(C)C)cc1)c1ccccc1 [4-hydroxytamoxifen],1470 nM,2490 nM,2060 nM,1390 nM,1810 nM,2320 nM,2390 nM,2540 nM,2010 nM,3410 nM,3310 nM,3560 nM,3000 nM,2180 nM
Nc1ncnc2c1nc(Cl)n2[C@@H]1O[C@H](CO)[C@@H](O)[C@H]1O [8-chloro-adenosine],1890 nM,3820 nM,2960 nM,2580 nM,1590 nM,6590 nM,1240 nM,2800 nM,3550 nM,> 50000 nM,,2820 nM,> 50000 nM,> 50000 nM
COc1cc(Nc2ncc3c(n2)-c2ccc(Cl)cc2C(c2c(F)cccc2OC)=NC3)ccc1C(=O)O [Alisertib],124 nM,26.5 nM,244 nM,31.1 nM,24.8 nM,1560 nM,288 nM,89.6 nM,53.4 nM,> 10000 nM,265 nM,40.4 nM,> 10000 nM,> 10000 nM
CN(C)c1nc(N(C)C)nc(N(C)C)n1 [Altretamine],> 10000 nM,> 10000 nM,> 10000 nM,> 10000 nM,> 10000 nM,> 10000 nM,> 10000 nM,> 10000 nM,> 10000 nM,> 10000 nM,> 10000 nM,> 10000 nM,> 10000 nM,> 10000 nM
CN1CC[C@H](c2c(O)cc(O)c3c(=O)cc(-c4ccccc4Cl)oc23)[C@H](O)C1 [Alvocidib],299 nM,243 nM,195 nM,185 nM,170 nM,120 nM,173 nM,185 nM,219 nM,194 nM,931 nM,614 nM,484 nM,304 nM
CC(C)c1c(C(=O)Nc2ccccc2)c(-c2ccccc2)c(-c2ccc(F)cc2)n1CC[C@@H](O)C[C@@H](O)CC(=O)O [Atorvastatin],2500 nM,196 nM,2210 nM,2320 nM,1280 nM,1680 nM,2450 nM,2090 nM,319 nM,> 10000 nM,3270 nM,3510 nM,368 nM,234 nM
O=C(O)CCCCC(CCSCc1ccccc1)SCc1ccccc1 (stereo unspecified) [CPI-613],> 10000 nM,> 10000 nM,> 10000 nM,,> 10000 nM,,> 10000 nM,> 10000 nM,> 10000 nM,> 10000 nM,> 10000 nM,> 10000 nM,> 10000 nM,> 10000 nM
O=NN(CCCl)C(=O)NCCCl [Carmustine],> 10000 nM,> 10000 nM,> 10000 nM,> 10000 nM,> 10000 nM,,> 10000 nM,> 10000 nM,> 10000 nM,> 10000 nM,> 10000 nM,> 10000 nM,> 10000 nM,> 10000 nM
O=P1(N(CCCl)CCCl)NCCCO1 (stereo unspecified) [Cyclophosphamide],> 40000 nM,> 40000 nM,> 40000 nM,> 40000 nM,> 40000 nM,> 40000 nM,> 40000 nM,> 40000 nM,> 40000 nM,> 40000 nM,> 40000 nM,> 40000 nM,> 40000 nM,> 40000 nM
Cc1nc(Nc2ncc(C(=O)Nc3c(C)cccc3Cl)s2)cc(N2CCN(CCO)CC2)n1 [Dasatinib],53.8 nM,81.7 nM,84.9 nM,16.8 nM,41.3 nM,,43.9 nM,25.8 nM,48.7 nM,> 1000 nM,29.4 nM,52 nM,> 1000 nM,> 1000 nM
CC(=O)N(O)CCCCCNC(=O)CCC(=O)N(O)CCCCCNC(=O)CCC(=O)N(O)CCCCCN [Deferoxamine aq],931 nM,771 nM,,,1630 nM,,1300 nM,1420 nM,1470 nM,,3040 nM,> 10000 nM,> 10000 nM,> 10000 nM
COc1cc([C@@H]2c3cc4c(cc3[C@@H](O[C@@H]3O[C@@H]5CO[C@@H](C)O[C@H]5[C@H](O)[C@H]3O)[C@H]3COC(=O)[C@H]23)OCO4)cc(OC)c1O [Etoposide],1490 nM,241 nM,1120 nM,175 nM,833 nM,1300 nM,1930 nM,1210 nM,658 nM,,3230 nM,896 nM,3130 nM,1420 nM
CO[C@H]1C[C@@H]2CC[C@@H](C)[C@@](O)(O2)C(=O)C(=O)N2CCCC[C@H]2C(=O)O[C@H]([C@H](C)C[C@@H]2CC[C@@H](OCCO)[C@H](OC)C2)CC(=O)[C@H](C)/C=C(\C)[C@@H](O)[C@@H](OC)C(=O)[C@H](C)C[C@H](C)/C=C/C=C/C=C/1C [Everolimus],1.46 nM,0.239 nM,,5.94 nM,0.537 nM,,0.32 nM,0.14 nM,0.12 nM,> 100 nM,> 100 nM,> 100 nM,> 100 nM,> 100 nM
COc1cc2c(Oc3ccc(NC(=O)C4(C(=O)Nc5ccc(F)cc5)CC4)cc3F)ccnc2cc1OCCCN1CCOCC1 [Foretinib],138 nM,256 nM,378 nM,275 nM,257 nM,,142 nM,209 nM,238 nM,,288 nM,311 nM,> 1000 nM,> 1000 nM
Cc1c(CN2CCN(C(=O)[C@H](C)O)CC2)sc2c(N3CCOCC3)nc(-c3cnc(N)nc3)nc12 [GDC-0980],447 nM,469 nM,,,617 nM,,1060 nM,486 nM,636 nM,,2880 nM,> 10000 nM,> 10000 nM,> 10000 nM
CC(C)C[C@H](NC(=O)[C@@H](COC(C)(C)C)NC(=O)[C@H](Cc1ccc(O)cc1)NC(=O)[C@H](CO)NC(=O)[C@H](Cc1c[nH]c2ccccc12)NC(=O)[C@H](Cc1cnc[nH]1)NC(=O)[C@@H]1CCC(=O)N1)C(=O)N[C@@H](CCCNC(=N)N)C(=O)N1CCC[C@H]1C(=O)NNC(N)=O [Goserelin],> 10000 nM,> 10000 nM,,> 10000 nM,> 10000 nM,> 10000 nM,> 10000 nM,> 10000 nM,> 10000 nM,> 10000 nM,> 10000 nM,> 10000 nM,> 10000 nM,> 10000 nM
CO[C@@]12[C@H](COC(N)=O)C3=C(C(=O)C(C)=C(N)C3=O)N1C[C@@H]1N[C@@H]12 [Mitomycin C],3790 nM,3650 nM,3950 nM,2190 nM,3690 nM,,3760 nM,3590 nM,3330 nM,> 10000 nM,3080 nM,2850 nM,2870 nM,1060 nM
CC1(C)CNc2cc(NC(=O)c3cccnc3NCc3ccncc3)ccc21 [Motesanib],> 10000 nM,,> 10000 nM,,> 10000 nM,> 10000 nM,> 10000 nM,> 10000 nM,> 10000 nM,> 10000 nM,> 10000 nM,> 10000 nM,> 10000 nM,> 10000 nM
Cc1ccc([N+](=O)[O-])cc1S(=O)(=O)N(C)/N=C/c1cnc2ccc(Br)cn12 [PIK-75],275 nM,161 nM,,,186 nM,,212 nM,143 nM,175 nM,,567 nM,160 nM,299 nM,330 nM
Cn1cnc2c(F)c(Nc3ccc(Br)cc3Cl)c(C(=O)NOCCO)cc21 [Selumetinib],301 nM,1710 nM,2030 nM,> 10000 nM,736 nM,,727 nM,240 nM,2600 nM,> 10000 nM,,> 10000 nM,> 10000 nM,> 10000 nM
COc1cc2nccc(Oc3ccc(NC(=O)Nc4cc(C)on4)c(Cl)c3)c2cc1OC [Tivozanib],18.9 nM,1790 nM,3870 nM,2260 nM,828 nM,3730 nM,> 10000 nM,1870 nM,1710 nM,> 10000 nM,1900 nM,1890 nM,,> 10000 nM
O=C(CCCCCCC(=O)Nc1ccc([C@H]2O[C@@H](CSc3nc(-c4ccccc4)c(-c4ccccc4)o3)C[C@@H](c3ccc(CO)cc3)O2)cc1)NO [Tubacin],3190 nM,2970 nM,2800 nM,2010 nM,3160 nM,1470 nM,2970 nM,3310 nM,3280 nM,,3070 nM,3190 nM,> 10000 nM,> 10000 nM
CN1CCc2c(c3ccccc3n2Cc2ccc(C(=O)NO)cc2)C1 [Tubastatin A],2430 nM,,3370 nM,1600 nM,3270 nM,3010 nM,3470 nM,2840 nM,3180 nM,> 10000 nM,> 10000 nM,2760 nM,> 10000 nM,> 10000 nM
